system: TE85 human bone cells; test: Bone cell proliferation (TE85 cells); assay type: cell-based; settings: average at 5 concentrations
Description: A similar method was used to measure the effect of test compounds on TE85 human bone cells.
Tables 2 and 3 show several examples of the invention with molecular formulas, melting points, and activity expressed as the average increase in bone cell proliferation at 5 concentrations (CP) or as the concentration of compound in nanomoles per liter (×10^-9 M) required to displace 50% of I^125 labeled vinyl nortestosterone (VNT) from the human bone progestin receptor (BPR) (IC50). If there is no value reported in the CP column that particular compound was not tested.

Structure (SMILES)	CP: average increase in bone cell proliferation at 5 concentrations
O=C(c1ccc(Cl)c(Cl)c1)N1CCC2CCc3ccccc3C2=N1 (stereo not shown) [Example 6, 3-(3,4-dichlorobenzoyl)-3,4-diazo-1,2,3,9,10,10a-hexahydrophenanthrene]	115
O=C(c1cc(Cl)cc(Cl)c1)N1CCC2CCCc3ccccc3C2=N1 (stereo not shown) [Example 7, 2-(3,5-dichlorobenzoyl)-3,4,4a,5,6,7-hexahydro-2H-benzo[6,7]cyclohepta[1,2c]pyridazine]	120
O=C(c1ccc(Cl)c(Cl)c1)N1CCC2CCCc3ccccc3C2=N1 (stereo not shown) [Example 9, 2-(3,4-dichlorobenzoyl)-3,4,4a,5,6,7-hexahydro-2H-benzo[6,7]cyclohepta[1,2c]pyridazine]	123
O=C(c1ccc(F)c(F)c1)N1CCC2CCc3ccccc3C2=N1 (stereo not shown) [Example 10, 3-(3,4-difluorobenzoyl)-3,4-diazo-1,2,3,9,10,10a-hexahydrophenanthrene]	112
O=C(c1cc(Cl)cc(Cl)c1)N1CCC2CCc3ccccc3C2=N1 (stereo not shown) [Example 11, 3-(3,5-dichlorobenzoyl)-3,4-diazo-1,2,3,9,10,10a-hexahydrophenanthrene]	113
O=C(c1ccc(Cl)c(Cl)c1)N1CCC2COc3ccccc3C2=N1 (stereo not shown) [Example 12, 3-(3,4-dichlorobenzoyl)-3,4-diazo-9-oxa-1,2,3,9,10,10a-hexahydrophenanthren]	107
S=C(c1cc(Cl)cc(Cl)c1)N1CCC2CCCc3ccccc3C2=N1 (stereo not shown) [Example 15, 2-(3,5-dichlorothiobenzoyl)-3,4,4a,5,6,7-hexahydro-2H-benzo[6,7]cyclohepta[1,2c]pyridazine]	109
Fc1ccc(C(=S)N2CCC3CCCc4ccccc4C3=N2)cc1F (stereo not shown) [Example 16, 2-(3,4-difluorothiobenzoyl)-3,4,4a,5,6,7-hexahydro-2H-benzo[6,7]cyclohepta[1,2c]pyridazine]	111
S=C(c1ccc(Cl)c(Cl)c1)N1CCC2CCCc3ccccc3C2=N1 (stereo not shown) [Example 17, 2-(3,4-dichlorothiobenzoyl)-3,4,4a,5,6,7-hexahydro-2H-benzo[6,7]cyclohepta[1,2c]pyridazine]	115
S=C(c1ccc(Cl)c(Cl)c1)N1CCC2CCc3ccccc3C2=N1 (stereo not shown) [Example 19, 3-(3,4-dichlorothiobenzoyl)-3,4-diazo-1,2,3,9,10,10a-hexahydrophenanthrene]	87
S=C(c1cc(Cl)cc(Cl)c1)N1CCC2CCc3ccccc3C2=N1 (stereo not shown) [Example 20, 3-(3,5-dichlorothiobenzoyl)-3,4-diazo-1,2,3,9,10,10a-hexahydrophenanthrene]	103

target: T1, rabbit uterine cytosolic progestin receptor (PR) (Oryctolagus cuniculus, UniProt P06186); test: Progestin Receptor Binding: competitive displacement of 3H-R5020; set-up: species or system rabbit (New Zealand rabbits); settings: rabbit uterine cytosol, 4° C., 18 h, read-out: PR: concentration required to displace 50% of H3 labeled R5020 (IC50)
T1 construct: The high speed supernatant fraction is used as the receptor preparation; from tissue; host or cells: uterus of New Zealand rabbits, 200,000 G supernatant (cytosol)
T1 sequence (P06186 1-930): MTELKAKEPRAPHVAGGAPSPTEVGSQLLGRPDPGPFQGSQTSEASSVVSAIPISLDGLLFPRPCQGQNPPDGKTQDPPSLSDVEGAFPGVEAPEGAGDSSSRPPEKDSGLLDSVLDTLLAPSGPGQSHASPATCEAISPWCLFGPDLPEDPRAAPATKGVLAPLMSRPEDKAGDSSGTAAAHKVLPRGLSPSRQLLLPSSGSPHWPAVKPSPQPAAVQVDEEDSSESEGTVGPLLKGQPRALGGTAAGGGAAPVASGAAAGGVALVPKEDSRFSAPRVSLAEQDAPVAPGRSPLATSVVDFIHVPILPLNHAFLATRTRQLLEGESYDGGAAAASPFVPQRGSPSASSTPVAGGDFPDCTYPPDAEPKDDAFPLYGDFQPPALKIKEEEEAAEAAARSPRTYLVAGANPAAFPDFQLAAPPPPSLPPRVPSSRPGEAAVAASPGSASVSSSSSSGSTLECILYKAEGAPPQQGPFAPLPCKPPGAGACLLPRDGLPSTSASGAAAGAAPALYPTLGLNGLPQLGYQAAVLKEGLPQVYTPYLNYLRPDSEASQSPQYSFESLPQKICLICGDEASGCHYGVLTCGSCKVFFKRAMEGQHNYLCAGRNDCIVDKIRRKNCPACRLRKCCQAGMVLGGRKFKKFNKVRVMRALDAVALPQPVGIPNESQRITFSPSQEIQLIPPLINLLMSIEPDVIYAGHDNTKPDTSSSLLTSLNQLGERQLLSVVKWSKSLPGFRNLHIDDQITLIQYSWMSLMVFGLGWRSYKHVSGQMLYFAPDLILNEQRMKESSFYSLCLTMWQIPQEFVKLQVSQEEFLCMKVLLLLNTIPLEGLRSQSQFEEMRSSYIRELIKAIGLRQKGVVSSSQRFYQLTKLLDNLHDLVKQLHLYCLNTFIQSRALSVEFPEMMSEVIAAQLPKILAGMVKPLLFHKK
Protocol: Progestin Receptor Binding
The procedure used is essentially that of J. L. McGuire, C. D. Bariso and A. P. Shroff in Biochemistry 13, 319 (1974).
Uteri from New Zealand rabbits (1.5 to 2.5 kg) are placed in a cold buffer A (0.01M Tris-HCl, pH 8.0, 0.001M EDTA, 0.25M sucrose). The uteri are minced, washed and homogenized in cold buffer A. The homogenate (2 g wet tissue/mL buffer) is centrifuged at 200,000 G for 1 h at 4° C. The high speed supernatant fraction is used as the receptor preparation.
A competitive binding assay is performed by mixing ^3 H-R5020 with the receptor preparation and adding a known amount of unlabelled compound. This mixture is incubated at 4° C. for 18 h. The compounds bound to the receptor are separated from those free in solution using dextran coated charcoal and the amount of isotope bound to the receptor is determined. A depression of 20% or greater from control isotope binding is considered significant.
If there is no value reported in the T47D column that particular compound was not tested.

Structure (SMILES)	IC50 [nM]
O=S(=O)(c1ccc(I)cc1)N1CCC2CCCc3c(Br)cccc3C2=N1 (stereo not shown) [Example 1, 8-Bromo-3,4,4a,5,6,7-hexahydro-2-(4-iodobenzenesulfonyl)-2H-benzo[6,7]cyclohepta[1,2c]pyridazine]	76
O=S(=O)(c1ccc(I)cc1)N1CCC2CCc3c(Br)cccc3C2=N1 (stereo not shown) [Example 2, 8-Bromo-3,4-diazo-1,2,3,9,10,10a-hexahydro-3-(4-iodobenzenesulfonyl)phenanthrene]	10
O=S(=O)(c1ccc(I)cc1)N1CCC2CCc3c(ccc(Br)c3Br)C2=N1 (stereo not shown) [Example 3, 7,8-Dibromo-3,4-diazo-1,2,3,9,10,10a-hexahydro-3-(4-iodobenzenesulfonyl)phenanthrene]	2.4
O=S(=O)(c1ccc(I)cc1)N1CCC2CCc3cc(Cl)ccc3C2=N1 (stereo not shown) [Example 4, 7-Chloro-3,4-diazo-1,2,3,9,10,10a-hexahydro-3-(4-iodobenzenesulfonyl)phenanthrene]	8.3
O=S(=O)(c1cc(Cl)ccc1Cl)N1CCC2CCc3cc(Cl)ccc3C2=N1 (stereo not shown) [Example 5, 7-Chloro-3,4-diazo-1,2,3,9,10,10a-hexahydro-3-(2,5-dichlorobenzenesulfonyl)phenanthrene]	34

system: T47D human breast carcinoma cells; test: Ex Vivo Progestational Test: 3H-thymidine incorporation into T47-D cells; assay type: cell-based; settings: T47D, antagonist, printed with - sign, R5020 (promegestone) induced proliferation, read-out: T47D: antagonist EC50 against R5020 induced proliferation
Protocol: Ex Vivo Progestational Test
The incorporation of ^3 H-thymidine into T47-D cells was used to test the effect of compounds on T47-D cell proliferation.
T47-D (human breast line) was used employing standard sterile techniques. Cells were maintained in RPMI 1640 medium supplemented with fetal bovine serum (10%) and insulin (0.2 I.U./ml). Cells were trypsinized and passaged using standard procedures.
Cells were plated in 96-well microtiter plates by incubation in RPMI medium (phenol red-free, insulin-free, 5% charcoal treated fetal bovine serum) at 37° C. in an atmosphere of 95% air/5% CO2. Approximately 48 hours later, spent medium was replaced by fresh medium containing test compounds dissolved in DMSO (0.1% final concentration) and the cells were incubated for approximately 22 hours. ^3 H-Thymidine was added and the incubation allowed to proceed for another 4 hours. The test was then stopped with the addition of excess unlabeled thymidine. Cells were washed free of soluble thymidine, trypsinized and harvested by standard procedures. The amount of ^3 H-thymidine incorporated into DNA was determined by liquid scintillation counting. The primary standards were promegestone, a potent synthetic progestin and RU486, an antiprogestin. Test compounds were generally screened at concentrations ranging from 0.1 to 1000 nM. A compound was considered active if it stimulated or inhibited thymidine incorporation. Results were expressed as the concentration of test compounds needed to increase proliferation 2 times over control (SC200) or the concentration needed to inhibit promegestone induced proliferation by 50% (EC50). A value less than 1000 nM was considered active.
Aspects of the application of the procedure used are described in the following: C. Christensen, D. Gunter, D. Saunders and V. Malviya, Gynecol. Oncol., 28, 25 (1987); J. Puzas, R. Drivdahl, G. Howard and D. Baylink, Proc. Soc. Exp. Biol. Med., 166, 113 (1981); and I. Keydar, L. Chen, S. Karby, F. Weiss, J. Delarea, M. Raduy, S. Chaitcik and H. Brenner, Eur. J. Cancer, 15, 659 (1979). […]

Structure (SMILES)	EC50 [nM]
O=S(=O)(c1ccc(I)cc1)N1CCC2CCc3cc(Cl)ccc3C2=N1 (stereo not shown) [Example 4, 7-Chloro-3,4-diazo-1,2,3,9,10,10a-hexahydro-3-(4-iodobenzenesulfonyl)phenanthrene]	654
O=S(=O)(c1cc(Cl)ccc1Cl)N1CCC2CCc3cc(Cl)ccc3C2=N1 (stereo not shown) [Example 5, 7-Chloro-3,4-diazo-1,2,3,9,10,10a-hexahydro-3-(2,5-dichlorobenzenesulfonyl)phenanthrene]	495

same assay, conditions: agonist, printed with + sign, T47D proliferation, 3H-thymidine, read-out: T47D: agonist SC200 (concentration stimulating 2fold above control)

Structure (SMILES)	EC (2-fold above control) [µM]
O=S(=O)(c1ccc(I)cc1)N1CCC2CCc3c(ccc(Br)c3Br)C2=N1 (stereo not shown) [Example 3, 7,8-Dibromo-3,4-diazo-1,2,3,9,10,10a-hexahydro-3-(4-iodobenzenesulfonyl)phenanthrene]	0.337
